Test results reported in patent publication US20170121315A1, “HETEROBICYCLICALLY SUBSTITUTED 4-OXOBUTANE ACID DERIVATIVES AND USE THEREOF” (priority 2014, published 2017).

Tests used:
Format in all cases: biochemical
MMP-8 = target: T1, MMP-8 (Homo sapiens, UniProt P22894); assay: In vitro MMP-8 inhibition test; conditions: human MMP-8
T1 construct: purchased R&D Systems 908-MP
Description: (§1) The MMP-mediated amidolytic cleavage of a suitable peptide substrate leads to an increase in fluorescent light here too. The signal intensity of the fluorescent light is directly proportional to the enzyme activity. The active concentration of a test compound at which half the enzyme is inhibited (50% signal intensity of the fluorescent light) is reported as the IC50 value.
(§2) Recombinant MMP-8 (R&D Systems, 908-MP) is chemically activated in accordance with the manufacturer's instructions using APMA. 1 μl of the test compound to be analysed (as a solution in DMSO, suitable concentrations e.g. 1 nM to 30 μM) is pipetted into 24 μl of activated enzyme (final concentration e.g. 0.5 nM) in reaction buffer (50 mM Tris/HCl pH 7.5, 10 mM CaCl2, 150 mM NaCl, 0.05% Brij®-35) in a white 384-hole microtiter plate (MTP). The enzymatic reaction is started by adding the intramolecularly quenched Mca-Pro-Leu-Gly-Leu-Dpa(Dnp)-Ala-Arg-NH2 substrate (final concentration e.g. 10 μM; R&D Systems, ES-001), so as to result in a total test volume of 50 μl. The course of the MMP-8 reaction is measured by measuring the fluorescence intensity (excitation 320 nm, emission 410 nm) over a suitable period of time (e.g. over 120 min at a temperature of 32° C.).

MMP-3 = target: T2, MMP-3 (Homo sapiens, UniProt P08254); assay: In vitro MMP-3 inhibition test; conditions: human MMP-3
T2 construct: purchased R&D Systems 513-MP
Description: as §1
as §2, with “MMP-3” for “MMP-8”, “513-MP)” for “908-MP)”, “2” for “0.5”, “Mca-Arg-Pro-Lys-Pro-Val-Glu-Nval-Trp-Arg-Lys(Dnp)-NH2” for “Mca-Pro-Leu-Gly-Leu-Dpa(Dnp)-Ala-Arg-NH2”, “ES-002),” for “ES-001),”

MMP-2 = target: T3, MMP-2 (Homo sapiens, UniProt P08253); assay: In vitro MMP-2 inhibition test; conditions: human MMP-2
T3 construct: purchased R&D Systems 902-MP
T3 sequence (P08253 110-660): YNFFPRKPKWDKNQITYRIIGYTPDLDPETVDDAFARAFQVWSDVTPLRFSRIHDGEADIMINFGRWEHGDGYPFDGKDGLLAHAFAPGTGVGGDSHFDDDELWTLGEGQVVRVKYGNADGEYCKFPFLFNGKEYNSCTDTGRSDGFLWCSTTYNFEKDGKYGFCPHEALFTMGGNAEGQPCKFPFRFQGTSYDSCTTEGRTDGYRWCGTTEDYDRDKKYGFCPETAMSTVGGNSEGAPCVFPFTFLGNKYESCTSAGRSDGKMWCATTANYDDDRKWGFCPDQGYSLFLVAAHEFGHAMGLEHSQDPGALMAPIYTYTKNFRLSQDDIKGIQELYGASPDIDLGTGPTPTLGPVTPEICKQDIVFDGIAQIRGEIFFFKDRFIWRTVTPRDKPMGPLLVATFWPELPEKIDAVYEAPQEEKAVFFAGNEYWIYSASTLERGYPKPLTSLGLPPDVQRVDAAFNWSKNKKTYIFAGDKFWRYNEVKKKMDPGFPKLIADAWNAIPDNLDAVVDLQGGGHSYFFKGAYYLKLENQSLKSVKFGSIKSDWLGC
Description: as §1
as §2, with “MMP-2” for “MMP-8”, “902-MP)” for “908-MP)”, “2” for “0.5”

T1 sequence (P22894 101-467): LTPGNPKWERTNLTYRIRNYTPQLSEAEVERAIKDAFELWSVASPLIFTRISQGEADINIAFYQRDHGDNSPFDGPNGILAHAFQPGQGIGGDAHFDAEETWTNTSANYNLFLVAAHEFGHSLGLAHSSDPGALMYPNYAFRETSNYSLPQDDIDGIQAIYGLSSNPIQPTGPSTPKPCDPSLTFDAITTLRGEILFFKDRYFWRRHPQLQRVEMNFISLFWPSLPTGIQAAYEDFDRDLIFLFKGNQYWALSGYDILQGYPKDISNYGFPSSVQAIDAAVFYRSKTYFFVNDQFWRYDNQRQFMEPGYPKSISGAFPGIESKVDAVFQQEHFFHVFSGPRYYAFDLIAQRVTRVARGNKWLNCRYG
T2 sequence (P08254 100-477): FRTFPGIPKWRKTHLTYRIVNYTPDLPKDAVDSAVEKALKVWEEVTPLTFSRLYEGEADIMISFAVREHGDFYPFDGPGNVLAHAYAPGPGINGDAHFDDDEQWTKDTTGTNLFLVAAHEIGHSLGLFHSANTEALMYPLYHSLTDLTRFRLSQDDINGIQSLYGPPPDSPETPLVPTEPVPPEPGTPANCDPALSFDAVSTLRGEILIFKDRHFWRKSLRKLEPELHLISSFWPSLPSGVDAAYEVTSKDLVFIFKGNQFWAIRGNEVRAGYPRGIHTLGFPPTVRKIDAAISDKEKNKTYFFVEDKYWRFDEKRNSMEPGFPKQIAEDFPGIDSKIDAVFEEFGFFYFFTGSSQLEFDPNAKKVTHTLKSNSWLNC

Row | SMILES | IC50 (MMP-8) [µM] | IC50 (MMP-3) [µM] | IC50 (MMP-2) [µM]
1 | O=C(CC(CCn1nnc2ccccc2c1=O)C(=O)O)c1cc2cc(OCCc3ccccc3Cl)ccc2o1 (racemic) [Example 1, (+/−)-4-{5-[2-(2-Chlorophenyl)ethoxy]-1-benzofur-2-yl}-4-oxo-2-[2-(4-oxo-1,2,3-benzotriazin-3(4H)-yl)ethyl]butanoic acid] | > 40 | > 40 | > 40
2 | O=C(CC(CCn1nnc2ccccc2c1=O)C(=O)O)c1cc2cc(OCCc3ccc(Cl)cc3)ccc2o1 (racemic) [Example 2, (+/−)-4-{5-[2-(4-Chlorophenyl)ethoxy]-1-benzofur-2-yl}-4-oxo-2-[2-(4-oxo-1,2,3-benzotriazin-3(4H)-yl)ethyl]butanoic acid] | 14 | 25 | 4.6
3 | O=C(CC(CCn1nnc2ccccc2c1=O)C(=O)O)c1cc2cc(OCCC3CCOCC3)ccc2o1 (racemic) [Example 6, (+/−)-4-Oxo-2-[2-(4-oxo-1,2,3-benzotriazin-3(4H)-yl)ethyl]-4-{5-[2-(tetrahydro-2H-pyran-4-yl)ethoxy]-1-benzofur-2-yl}butanoic acid] | 3.9 | 26 | 0.43
4 | O=C(CC(CCn1nnc2ccccc2c1=O)C(=O)O)c1cc2cc(OCCC3CCCC3)ccc2o1 (racemic) [Example 7, (+/−)-4-[5-(2-Cyclopentylethoxy)-1-benzofur-2-yl]-4-oxo-2-[2-(4-oxo-1,2,3-benzotriazin-3(4H)-yl)ethyl]butanoic acid] | 22 | 27 | 0.92
5 | O=C(CC(CCn1nnc2ccccc2c1=O)C(=O)O)c1cc2cc(OCC3CCCCC3)ccc2o1 (racemic) [Example 8, (+/−)-4-[5-(Cyclohexylmethoxy)-1-benzofur-2-yl]-4-oxo-2-[2-(4-oxo-1,2,3-benzotriazin-3(4H)-yl)ethyl]butanoic acid] | 30 | > 40 | > 40
6 | CCCCCCCOc1ccc2oc(C(=O)CC(CCn3nnc4ccccc4c3=O)C(=O)O)cc2c1 (racemic) [Example 31, (+/−)-4-[5-(Heptyloxy)-1-benzofur-2-yl]-4-oxo-2-[2-(4-oxo-1,2,3-benzotriazin-3(4H)-yl)ethyl]butanoic acid] | 35 | > 40 | 4.4
7 | O=C(CC(CCn1nnc2ccccc2c1=O)C(=O)O)c1cc2cc(OCCCc3ccccc3)ccc2o1 (racemic) [Example 37, (+/−)-4-Oxo-2-[2-(4-oxo-1,2,3-benzotriazin-3(4H)-yl)ethyl]-4-[5-(3-phenylpropoxy)-1-benzofur-2-yl]butanoic acid] | 12 | 39 | 3.3
8 | O=C(CC(CCn1nnc2ccccc2c1=O)C(=O)O)c1cc2cc(OCc3ccc(C(F)(F)F)cc3)ccc2o1 (racemic) [Example 44, (+/−)-4-Oxo-2-[2-(4-oxo-1,2,3-benzotriazin-3(4H)-yl)ethyl]-4-(5-{[4-(trifluoromethyl)benzyl]oxy}-1-benzofur-2-yl)butanoic acid] | 28 | 23 | > 40
9 | CCCCCCCOc1ccc2c(C(=O)CC(CCn3nnc4ccccc4c3=O)C(=O)O)coc2c1 (racemic) [Example 101, (+/−)-4-[6-(Heptyloxy)-1-benzofur-3-yl]-4-oxo-2-[2-(4-oxo-1,2,3-benzotriazin-3(4H)-yl)ethyl]butanoic acid] | 12 | > 40 | 0.66

Further lines, results first:

Row | IC50 (MMP-8) [µM] | IC50 (MMP-3) [µM] | IC50 (MMP-2) [µM] | SMILES
10 | 36 | 34 | 3.8 | O=C(CC(CCn1nnc2ccccc2c1=O)C(=O)O)c1cc2cc(OCc3cccc(Cl)c3)ccc2o1 (racemic) [Example 50, (+/−)-4-{5-[(3-Chlorobenzyl)oxy]-1-benzofur-2-yl}-4-oxo-2-[2-(4-oxo-1,2,3-benzotriazin-3(4H)-yl)ethyl]butanoic acid]
11 | 34 | > 40 | 19 | Cc1cccc(COc2ccc3oc(C(=O)CC(CCn4nnc5ccccc5c4=O)C(=O)O)cc3c2)c1 (racemic) [Example 51, (+/−)-4-{5-[(3-Methylbenzyl)oxy]-1-benzofur-2-yl}-4-oxo-2-[2-(4-oxo-1,2,3-benzotriazin-3(4H)-yl)ethyl]butanoic acid]
12 | 10 | > 40 | 10 | CCCOc1ccc2cc(C(=O)CC(CCn3nnc4ccccc4c3=O)C(=O)O)oc2c1 (racemic) [Example 58, (+/−)-4-Oxo-2-[2-(4-oxo-1,2,3-benzotriazin-3(4H)-yl)ethyl]-4-(6-propoxy-1-benzofur-2-yl)butanoic acid]
13 | > 40 | > 40 | > 40 | O=C(CC(CCn1nnc2ccccc2c1=O)C(=O)O)c1cc2ccc(OCCCC3CCCCC3)cc2o1 (racemic) [Example 71, (+/−)-4-[6-(3-Cyclohexylpropoxy)-1-benzofur-2-yl]-4-oxo-2-[2-(4-oxo-1,2,3-benzotriazin-3(4H)-yl)ethyl]butanoic acid]
14 | 0.37 | 16 | 0.02 | O=C(CC(CCn1nnc2ccccc2c1=O)C(=O)O)c1coc2cc(OCCC3CCOCC3)ccc12 (racemic) [Example 74, (+/−)-4-Oxo-2-[2-(4-oxo-1,2,3-benzotriazin-3(4H)-yl)ethyl]-4-{6-[2-(tetrahydro-2H-pyran-4-yl)ethoxy]-1-benzofur-3-yl}butanoic acid]
15 | 3.3 | > 40 | 0.39 | O=C(CC(CCn1nnc2ccccc2c1=O)C(=O)O)c1coc2cc(OCCC3CCCC3)ccc12 (racemic) [Example 75, (+/−)-4-[6-(2-Cyclopentylethoxy)-1-benzofur-3-yl]-4-oxo-2-[2-(4-oxo-1,2,3-benzotriazin-3(4H)-yl)ethyl]butanoic acid]
16 | 6.7 | > 40 | 0.29 | CCCCCOc1ccc2c(C(=O)CC(CCn3nnc4ccccc4c3=O)C(=O)O)coc2c1 (racemic) [Example 89, (+/−)-4-Oxo-2-[2-(4-oxo-1,2,3-benzotriazin-3(4H)-yl)ethyl]-4-[6-(pentyloxy)-1-benzofur-3-yl]butanoic acid]
17 | 0.46 | 9.7 | 0.35 | O=C(CC(CCn1nnc2ccccc2c1=O)C(=O)O)c1cc2ccc(OCC3CC3)cc2s1 (racemic) [Example 111, (+/−)-4-[6-(Cyclopropylmethoxy)-1-benzothiophen-2-yl]-4-oxo-2-[2-(4-oxo-1,2,3-benzotriazin-3(4H)-yl)ethyl]butanoic acid]
18 | 3.2 | 3.2 | 0.083 | O=C(CC(CCn1nnc2ccccc2c1=O)C(=O)O)c1cc2ccc(OCCc3ccccc3)cc2s1 (racemic) [Example 114, (+/−)-4-Oxo-2-[2-(4-oxo-1,2,3-benzotriazin-3(4H)-yl)ethyl]-4-[6-(2-phenylethoxy)-1-benzothiophen-2-yl]butanoic acid]
